Results as given in ChEMBL document CHEMBL1133914, “Conformationally restricted indolopiperidine derivatives as potent CCR2B receptor antagonists” (Bioorg Med Chem Lett, 2001).
Where “and” joins values, the source holds several entries; their conditions need not be identical. Identical values can stand only once. Values belong to the compound of their own block, whether it stands above or below them. Calls of active or inactive are those of the source. The calls are words filed in the database; no cut-off is given here.

Assays:
[1] = molecular target: T1, C-C chemokine receptor type 2 (Homo sapiens, UniProt P41597); assay: (§1) Inhibition of [125I]MCP-1 binding to the cloned C-C chemokine receptor type 2B expressed in CHO cells; assay type: cell-based
Target sequence in this assay (P41597 whole entry): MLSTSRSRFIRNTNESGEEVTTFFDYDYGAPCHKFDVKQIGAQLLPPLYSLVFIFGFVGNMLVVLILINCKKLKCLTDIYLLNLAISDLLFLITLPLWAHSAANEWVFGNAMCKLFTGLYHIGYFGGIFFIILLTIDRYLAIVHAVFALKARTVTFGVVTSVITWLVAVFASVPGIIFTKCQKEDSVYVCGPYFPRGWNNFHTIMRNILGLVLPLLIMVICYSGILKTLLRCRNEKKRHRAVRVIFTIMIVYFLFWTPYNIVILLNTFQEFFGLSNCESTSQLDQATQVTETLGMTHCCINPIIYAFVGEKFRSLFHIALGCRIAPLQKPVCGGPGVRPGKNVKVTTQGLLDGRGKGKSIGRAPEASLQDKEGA

[2] = molecular target: T1, C-C chemokine receptor type 2; assay: as §1; assay type: cell-based; remark: listed apart in the source
Target sequence in this assay (P41597 whole entry): as above

[3] = molecular target: T1, C-C chemokine receptor type 2; assay: Inhibition of [125I]MCP-1 binding to the cloned C-C chemokine receptor type 2B expressed in CHO cells; IA mean inactive; assay type: cell-based
Target sequence in this assay (P41597 whole entry, looked up): as the sequence (P41597 whole entry) above

[4] = molecular target: T2, 5-hydroxytryptamine receptor 2A (Homo sapiens, UniProt P28223); assay: Binding affinity for 5-hydroxytryptamine 2A receptor was determined
T2 sequence (P28223 whole entry): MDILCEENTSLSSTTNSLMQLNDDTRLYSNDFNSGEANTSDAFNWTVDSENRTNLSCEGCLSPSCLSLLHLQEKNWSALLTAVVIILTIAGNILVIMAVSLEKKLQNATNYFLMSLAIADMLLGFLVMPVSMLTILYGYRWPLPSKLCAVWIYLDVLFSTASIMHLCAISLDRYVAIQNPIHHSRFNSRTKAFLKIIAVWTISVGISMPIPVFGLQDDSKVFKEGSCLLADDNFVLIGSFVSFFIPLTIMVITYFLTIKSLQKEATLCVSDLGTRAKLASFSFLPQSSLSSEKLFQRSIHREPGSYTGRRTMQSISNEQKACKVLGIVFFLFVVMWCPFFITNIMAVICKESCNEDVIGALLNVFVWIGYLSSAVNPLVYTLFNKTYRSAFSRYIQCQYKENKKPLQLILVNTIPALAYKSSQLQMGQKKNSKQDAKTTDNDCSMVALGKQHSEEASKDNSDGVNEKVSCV

[5] = molecular target: T3, 5-hydroxytryptamine receptor 1E (Homo sapiens, UniProt P28566); assay: Binding affinity for 5-hydroxytryptamine 1E receptor was determined
T3 sequence (P28566 whole entry): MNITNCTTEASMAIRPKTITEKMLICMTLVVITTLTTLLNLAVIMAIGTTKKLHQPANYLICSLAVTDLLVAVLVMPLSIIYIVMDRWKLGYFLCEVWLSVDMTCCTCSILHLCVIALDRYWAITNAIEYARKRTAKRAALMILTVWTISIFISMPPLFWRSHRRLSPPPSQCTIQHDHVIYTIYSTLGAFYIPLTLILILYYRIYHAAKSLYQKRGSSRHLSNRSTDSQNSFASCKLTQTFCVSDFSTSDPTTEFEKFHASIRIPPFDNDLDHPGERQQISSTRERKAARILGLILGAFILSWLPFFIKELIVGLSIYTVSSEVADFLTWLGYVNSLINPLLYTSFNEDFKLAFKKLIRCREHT

[6] = molecular target: T4, 5-hydroxytryptamine receptor 2B (Homo sapiens, UniProt P41595); assay: Binding affinity for 5-hydroxytryptamine 2B receptor was determined
T4 sequence (P41595 whole entry): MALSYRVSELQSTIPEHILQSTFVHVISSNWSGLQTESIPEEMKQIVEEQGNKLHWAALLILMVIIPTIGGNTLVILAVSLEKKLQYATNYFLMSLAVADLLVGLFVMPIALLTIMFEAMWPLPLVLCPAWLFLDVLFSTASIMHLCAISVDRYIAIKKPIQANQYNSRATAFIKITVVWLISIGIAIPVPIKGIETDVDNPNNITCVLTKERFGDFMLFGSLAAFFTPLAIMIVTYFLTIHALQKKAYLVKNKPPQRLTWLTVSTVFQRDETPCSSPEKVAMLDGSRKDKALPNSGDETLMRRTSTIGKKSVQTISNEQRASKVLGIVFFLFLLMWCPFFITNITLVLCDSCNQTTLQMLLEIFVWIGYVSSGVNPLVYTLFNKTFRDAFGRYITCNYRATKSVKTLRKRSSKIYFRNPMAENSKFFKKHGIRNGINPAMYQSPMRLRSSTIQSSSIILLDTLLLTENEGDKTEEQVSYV

D(3) dopamine receptor [7] = molecular target: T5, D(3) dopamine receptor (Homo sapiens, UniProt P35462); assay: Binding affinity for Dopamine receptor D3 was determined
T5 sequence (P35462 whole entry): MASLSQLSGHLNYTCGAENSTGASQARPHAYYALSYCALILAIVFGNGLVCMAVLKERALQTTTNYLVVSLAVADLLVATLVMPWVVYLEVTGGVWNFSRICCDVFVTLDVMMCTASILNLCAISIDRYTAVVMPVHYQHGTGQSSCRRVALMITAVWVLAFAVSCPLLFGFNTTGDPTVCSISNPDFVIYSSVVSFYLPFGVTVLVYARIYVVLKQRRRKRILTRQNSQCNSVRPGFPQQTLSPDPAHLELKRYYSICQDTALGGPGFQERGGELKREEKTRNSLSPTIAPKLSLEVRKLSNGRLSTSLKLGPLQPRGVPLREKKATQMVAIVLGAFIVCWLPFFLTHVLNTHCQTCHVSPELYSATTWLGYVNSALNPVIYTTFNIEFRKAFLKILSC

[8] = molecular target: T6, 5-hydroxytryptamine receptor 2C (Homo sapiens, UniProt P28335); assay: Binding affinity for 5-hydroxytryptamine 2C receptor was determined
T6 sequence (P28335 whole entry): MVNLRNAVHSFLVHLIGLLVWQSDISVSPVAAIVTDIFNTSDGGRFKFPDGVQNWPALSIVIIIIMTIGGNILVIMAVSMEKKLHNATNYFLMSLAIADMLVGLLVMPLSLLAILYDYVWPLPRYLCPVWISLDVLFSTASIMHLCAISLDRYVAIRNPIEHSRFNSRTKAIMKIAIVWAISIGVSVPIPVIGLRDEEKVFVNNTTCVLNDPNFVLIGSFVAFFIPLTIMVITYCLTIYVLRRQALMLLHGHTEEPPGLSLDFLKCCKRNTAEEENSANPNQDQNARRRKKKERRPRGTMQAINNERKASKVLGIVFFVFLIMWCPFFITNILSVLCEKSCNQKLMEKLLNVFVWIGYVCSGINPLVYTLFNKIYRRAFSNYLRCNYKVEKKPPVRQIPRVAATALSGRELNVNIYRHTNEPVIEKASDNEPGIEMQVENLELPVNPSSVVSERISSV

[9] = molecular target: T7, 5-hydroxytryptamine receptor 1B (Homo sapiens, UniProt P28222); assay: Binding affinity for 5-hydroxytryptamine 1B receptor was determined
T7 sequence (P28222 whole entry): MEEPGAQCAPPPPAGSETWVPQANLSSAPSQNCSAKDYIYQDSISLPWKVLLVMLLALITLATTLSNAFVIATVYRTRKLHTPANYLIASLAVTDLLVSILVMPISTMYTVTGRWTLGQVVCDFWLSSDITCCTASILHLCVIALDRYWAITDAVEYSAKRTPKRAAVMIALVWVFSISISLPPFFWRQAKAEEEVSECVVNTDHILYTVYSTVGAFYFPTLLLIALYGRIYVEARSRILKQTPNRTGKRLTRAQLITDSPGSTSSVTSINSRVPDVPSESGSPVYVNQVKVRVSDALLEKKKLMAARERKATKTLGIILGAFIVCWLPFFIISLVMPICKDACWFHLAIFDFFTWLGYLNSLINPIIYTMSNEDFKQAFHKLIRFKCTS

[10] = molecular target: T8, 5-hydroxytryptamine receptor 1F (Homo sapiens, UniProt P30939); assay: Binding affinity for 5-hydroxytryptamine 1F receptor was determined
T8 sequence (P30939 whole entry): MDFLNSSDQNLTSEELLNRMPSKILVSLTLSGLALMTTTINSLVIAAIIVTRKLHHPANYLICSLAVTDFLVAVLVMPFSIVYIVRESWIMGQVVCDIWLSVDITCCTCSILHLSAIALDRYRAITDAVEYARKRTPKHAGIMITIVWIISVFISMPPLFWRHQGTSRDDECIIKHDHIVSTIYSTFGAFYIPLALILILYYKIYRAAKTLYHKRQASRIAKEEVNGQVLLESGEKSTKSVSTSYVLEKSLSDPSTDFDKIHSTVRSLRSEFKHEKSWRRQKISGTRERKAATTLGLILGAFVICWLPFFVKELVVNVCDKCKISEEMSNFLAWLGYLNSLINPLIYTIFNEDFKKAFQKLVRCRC

D(2) dopamine receptor [11] = molecular target: T9, D(2) dopamine receptor (Homo sapiens, UniProt P14416); assay: Binding affinity for Dopamine receptor D2 was determined
T9 sequence (P14416 whole entry): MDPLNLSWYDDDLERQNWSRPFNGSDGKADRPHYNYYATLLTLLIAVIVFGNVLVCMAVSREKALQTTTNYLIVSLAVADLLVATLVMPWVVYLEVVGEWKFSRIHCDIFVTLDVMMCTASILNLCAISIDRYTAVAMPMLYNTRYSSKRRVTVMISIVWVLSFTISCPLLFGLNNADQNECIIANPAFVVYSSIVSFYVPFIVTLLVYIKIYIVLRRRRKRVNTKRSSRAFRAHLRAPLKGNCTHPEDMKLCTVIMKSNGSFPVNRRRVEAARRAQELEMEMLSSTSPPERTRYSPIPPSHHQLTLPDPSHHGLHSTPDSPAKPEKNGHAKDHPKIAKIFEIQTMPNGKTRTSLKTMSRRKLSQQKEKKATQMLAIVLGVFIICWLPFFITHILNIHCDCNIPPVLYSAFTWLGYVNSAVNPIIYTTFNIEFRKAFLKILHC

[12] = molecular target: T10, 5-hydroxytryptamine receptor 7 (Homo sapiens, UniProt P34969); assay: Binding affinity for 5-hydroxytryptamine 7 receptor was determined
T10 sequence (P34969 whole entry): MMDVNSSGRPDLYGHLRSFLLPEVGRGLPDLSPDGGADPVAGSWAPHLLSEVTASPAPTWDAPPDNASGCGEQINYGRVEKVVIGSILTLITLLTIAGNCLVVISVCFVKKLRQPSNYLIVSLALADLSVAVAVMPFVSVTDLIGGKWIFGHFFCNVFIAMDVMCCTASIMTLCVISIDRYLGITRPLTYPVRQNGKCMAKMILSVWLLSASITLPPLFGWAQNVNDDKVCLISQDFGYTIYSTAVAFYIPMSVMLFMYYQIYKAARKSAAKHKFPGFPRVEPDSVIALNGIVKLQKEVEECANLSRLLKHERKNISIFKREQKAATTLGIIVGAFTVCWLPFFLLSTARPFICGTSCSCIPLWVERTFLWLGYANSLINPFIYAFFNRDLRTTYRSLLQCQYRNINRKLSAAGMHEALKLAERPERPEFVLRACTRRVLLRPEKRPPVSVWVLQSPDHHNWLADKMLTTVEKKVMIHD

[13] = molecular target: T11, 5-hydroxytryptamine receptor 6 (Homo sapiens, UniProt P50406); assay: Binding affinity for 5-hydroxytryptamine 6 receptor was determined
T11 sequence (P50406 whole entry): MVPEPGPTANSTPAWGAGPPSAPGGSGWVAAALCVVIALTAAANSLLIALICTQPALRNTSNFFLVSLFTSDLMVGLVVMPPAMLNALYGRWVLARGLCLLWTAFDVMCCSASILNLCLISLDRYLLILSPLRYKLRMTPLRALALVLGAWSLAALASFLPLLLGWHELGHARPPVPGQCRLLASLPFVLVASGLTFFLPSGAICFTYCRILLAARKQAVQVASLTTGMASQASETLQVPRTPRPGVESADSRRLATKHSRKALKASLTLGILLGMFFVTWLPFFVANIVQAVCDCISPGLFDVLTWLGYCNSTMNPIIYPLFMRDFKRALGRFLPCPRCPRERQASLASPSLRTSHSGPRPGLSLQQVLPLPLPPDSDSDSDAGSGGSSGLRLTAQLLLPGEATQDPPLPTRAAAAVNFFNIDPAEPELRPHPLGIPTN

[14] = molecular target: T12, 5-hydroxytryptamine receptor 1A (Homo sapiens, UniProt P08908); assay: Binding affinity for 5-hydroxytryptamine 1A receptor was determined
T12 sequence (P08908 whole entry): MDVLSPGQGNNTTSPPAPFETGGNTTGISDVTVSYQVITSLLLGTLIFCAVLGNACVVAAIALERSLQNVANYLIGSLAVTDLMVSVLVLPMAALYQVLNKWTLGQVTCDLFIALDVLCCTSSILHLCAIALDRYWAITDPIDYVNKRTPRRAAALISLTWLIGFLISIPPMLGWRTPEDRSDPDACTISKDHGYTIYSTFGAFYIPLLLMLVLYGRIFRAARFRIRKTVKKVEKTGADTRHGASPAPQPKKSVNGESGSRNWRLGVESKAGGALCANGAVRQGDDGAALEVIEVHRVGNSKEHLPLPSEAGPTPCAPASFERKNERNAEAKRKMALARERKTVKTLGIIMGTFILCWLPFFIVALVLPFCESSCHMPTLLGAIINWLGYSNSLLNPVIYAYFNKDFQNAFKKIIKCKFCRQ

[15] = molecular target: T1, C-C chemokine receptor type 2; assay: Binding affinity for C-C chemokine receptor type 2B was determined
Target sequence in this assay (P41597 whole entry): as the sequence (P41597 whole entry) above

[16] = molecular target: T3, 5-hydroxytryptamine receptor 1E; assay: Binding affinity relative to indolopiperidine (compound 1) for 5-hydroxytryptamine 1E receptor was determined
D(2) dopamine receptor [17] = molecular target: T9, D(2) dopamine receptor; assay: (§2) Binding affinity relative to indolopiperidine (compound 1) for Dopamine receptor D2 was determined
[18] = molecular target: T11, 5-hydroxytryptamine receptor 6; assay: Binding affinity relative to indolopiperidine (compound 1) for 5-hydroxytryptamine 6 receptor was determined
D(3) dopamine receptor [19] = molecular target: T5, D(3) dopamine receptor; assay: (§3) Binding affinity relative to indolopiperidine (compound 1) for Dopamine receptor D3 was determined
[20] = molecular target: T13, 5-hydroxytryptamine receptor 1F (Homo sapiens) (UniProt P30939); assay: Binding affinity relative to indolopiperidine (compound 1) for 5-hydroxytryptamine 1F receptor was determined
T13 sequence (whole entry): T8 sequence (P30939 whole entry)

D(3) dopamine receptor [21] = molecular target: T5, D(3) dopamine receptor; assay: as §3; remark: listed apart in the source
[22] = molecular target: T2, 5-hydroxytryptamine receptor 2A; assay: Binding affinity relative to indolopiperidine (compound 1) for 5-hydroxytryptamine 2A receptor was determined
[23] = molecular target: T14, 5-hydroxytryptamine receptor 1A (Homo sapiens) (UniProt P08908); assay: Binding affinity relative to indolopiperidine (compound 1) for 5-hydroxytryptamine 1A receptor was determined
T14 sequence (whole entry): T12 sequence (P08908 whole entry)

[24] = molecular target: T4, 5-hydroxytryptamine receptor 2B; assay: Binding affinity relative to indolopiperidine (compound 1) for 5-hydroxytryptamine 2B receptor was determined
[25] = molecular target: T7, 5-hydroxytryptamine receptor 1B; assay: Binding affinity relative to indolopiperidine (compound 1) for 5-hydroxytryptamine 1B receptor was determined
[26] = molecular target: T10, 5-hydroxytryptamine receptor 7; assay: (§4) Binding affinity relative to indolopiperidine (compound 1) for 5-hydroxytryptamine 7 receptor was determined
D(2) dopamine receptor [27] = molecular target: T9, D(2) dopamine receptor; assay: as §2; remark: listed apart in the source
[28] = molecular target: T15, 5-hydroxytryptamine receptor 2C (Homo sapiens) (UniProt P28335); assay: Binding affinity relative to indolopiperidine (compound 1) for 5-hydroxytryptamine 2C receptor was determined
T15 sequence (whole entry): T6 sequence (P28335 whole entry)

[29] = molecular target: T10, 5-hydroxytryptamine receptor 7; assay: as §4; remark: listed apart in the source
[30] = molecular target: T1, C-C chemokine receptor type 2; assay: Binding affinity relative to indolopiperidine (compound 1) forC-C chemokine receptor type 2B was determined
Target sequence in this assay (P41597 whole entry, looked up): as the sequence (P41597 whole entry) above

[31] = molecular target: T1, C-C chemokine receptor type 2; assay: as §1; assay type: cell-based; remark: listed apart in the source
Target sequence in this assay (P41597 whole entry): as above

[32] = molecular target: T2, 5-hydroxytryptamine receptor 2A; assay: Binding affinity relative to indolopiperidine (compound 1)for 5-hydroxytryptamine 2A receptor was determined
[33] = molecular target: T1, C-C chemokine receptor type 2; assay: Binding affinity relative to indolopiperidine (compound 1) for C-C chemokine receptor type 2B was determined
Target sequence in this assay (P41597 whole entry, looked up): as the sequence (P41597 whole entry) above

[34] = molecular target: T1, C-C chemokine receptor type 2
Target sequence in this assay (P41597 whole entry, looked up): as the sequence (P41597 whole entry) above

[35] = molecular target: T1, C-C chemokine receptor type 2; assay: Inhibition of [125I]MCP-1 binding to the cloned C-C chemokine receptor type 2B expressed in CHO cells; IA means inactive; assay type: cell-based
Target sequence in this assay (P41597 whole entry, looked up): as the sequence (P41597 whole entry) above

Structure (SMILES): O=C(/C=C/c1ccc(Cl)c(Cl)c1)NCCCCCN1[C@@H]2CC[C@H]1CC(c1c[nH]c3ccc(O)cc13)C2 (single isomer, unassigned)
Ki [1]: 631 nM
Ki [2]: 630 nM

Structure (SMILES): O=C(/C=C/c1ccc(Cl)c(Cl)c1)NCc1cccc(CN2CCC(c3c[nH]c4ccccc34)CC2)c1
Log Ki [3]: inactive

Ki [4]: 20 nM
Ki [5]: 6.31 nM
Ki [6]: 25.1 nM
Ki (D(3) dopamine receptor [7]): 7.94 nM
Ki [8]: 79.4 nM
Ki [9]: 12.6 nM
Ki [10]: 3.16 nM
Ki (D(2) dopamine receptor [11]): 15.8 nM
Ki [12]: 63.1 nM
Ki [13]: 79.4 nM
Ki [14]: 100 nM
Structure (SMILES): O=C(/C=C/c1ccc(Cl)c(Cl)c1)NCCCCCN1CCC(c2c[nH]c3ccc(O)cc23)CC1

Structure (SMILES): O=C(/C=C/c1ccc(Cl)c(Cl)c1)N[C@H]1CC[C@@H](CN2[C@@H]3CC[C@H]2C[C@H](c2c[nH]c4ccc(O)cc24)C3)CC1
Ki [15]: 40 nM
Delta pKi [16]: > -3.2
Delta pKi (D(2) dopamine receptor [17]): -1.9
Delta pKi [18]: -1.4
Ki [4]: > 20000 nM
Delta pKi (D(3) dopamine receptor [19]): -2.5
Ki [1]: 39.8 nM
Ki [5]: > 6310 nM
Ki [6]: 501 nM
Delta pKi [20]: > -3
Ki [8]: > 3160 nM
Ki (D(3) dopamine receptor [21]): 2510 nM
Delta pKi [22]: -3
Delta pKi [23]: -1.9
Ki [9]: 1000 nM
Ki [10]: > 3160 nM
Ki [13]: 2000 nM
Delta pKi [24]: -1.3
Delta pKi [25]: -1.9
Delta pKi [26]: > -1.9
Ki [14]: 7940 nM
Ki (D(2) dopamine receptor [27]): 1260 nM
Delta pKi [28]: > -1.6
Log Ki [29]: < -6.1
Delta pKi [30]: 0.1

Structure (SMILES): O=C(/C=C/c1ccc(Cl)c(Cl)c1)N[C@H]1CC[C@@H](CN2CCC(c3c[nH]c4ccccc34)CC2)CC1
Ki [31]: 126 nM

Structure (SMILES): O=C(/C=C/c1ccc(Cl)c(Cl)c1)N[C@H]1CC[C@@H](CN2CCC(c3c[nH]c4ccc(O)cc34)CC2)CC1
Delta pKi [16]: -1.4
Delta pKi (D(2) dopamine receptor [17]): -0.8
Delta pKi [18]: -0.9
Delta pKi (D(3) dopamine receptor [19]): -0.9
Delta pKi [32]: -0.1
Ki [1]: 79.4 nM
Delta pKi [20]: -2.6
Ki [2]: 79 nM and 126 nM
Delta pKi [23]: -0.7
Delta pKi [33]: -0.2
Delta pKi [24]: -0.5
Delta pKi [25]: -1.2
Delta pKi [26]: -0.4
Delta pKi [28]: -0.4

Structure (SMILES): O=C(/C=C/c1ccc(Cl)c(Cl)c1)NCCCCCN1[C@@H]2CC[C@H]1CC(c1c[nH]c3ccc(O)cc13)C2 (stereo in doubt) [listing 1 of 2 here]
Delta pKi [16]: -3.2
Delta pKi (D(2) dopamine receptor [17]): -1.7
Delta pKi [18]: -0.9
Delta pKi (D(3) dopamine receptor [19]): -1.4
Delta pKi [20]: -2.7
Delta pKi [34]: -0.7
Delta pKi [22]: -0.9
Delta pKi [23]: -1.1
Delta pKi [24]: -1.5
Delta pKi [25]: -1.6
Delta pKi [26]: -1.5
Delta pKi [28]: -0.5

Structure (SMILES): O=C(/C=C/c1ccc(Cl)c(Cl)c1)NCCCCCN1[C@@H]2CC[C@H]1CC(c1c[nH]c3ccc(O)cc13)C2 (stereo in doubt) [listing 2 of 2 here]
Ki [31]: 251 nM
Ki [1]: 251 nM

Structure (SMILES): O=C(/C=C/c1ccc(Cl)c(Cl)c1)Nc1ccc(CN2CCC(c3c[nH]c4ccccc34)CC2)cc1
Log Ki [35]: inactive
